Laboratory results: publication PMC7662321, “Andrographolide and Its 14-Aryloxy Analogues Inhibit Zika and Dengue Virus Infection” (Molecules, 2020)

Assays:
[1] = test system: TKT; test: 2D-PAGE proteomic analysis of treated A549 cells, TKT spot; assay type: cell-based, human; conditions: A549, 25 µM, 24 h
Description: A549 cells were therefore treated with either vehicle (0.025% DMSO), or with 25 μM of andrographolide or ZAD-1, and at 24 h post-treatment, proteins were prepared and subjected to two-dimension polyacrylamide gel electrophoresis (2D-PAGE). The experiment was undertaken independently in triplicate and representative gels are shown Figure 5, with all replicates being shown in Supplementary Figure S12. […] All of these protein spots were cut from the gels and then subjected to in-gel tryptic digestion followed by mass spectrometry. MASCOT (Matrix Science Inc., Boston, MA, USA) search of the resultant masses identified 4 proteins (Table 3), namely heat shock protein 70 kDa 1A (HSPA1A), phosphoglycerate kinase 1 (PGK1), transketolase (TKT) and nuclear transport protein of GTP-binding nuclear protein Ran (Ran).
2D-PAGE and mass spectroscopic identification of differentially expressed spots was undertaken essentially as previously described. […] Image data were analyzed using Image Master™ 2D Platinum software version 7.0 (GenBio, Geneva, Switzerland). Each spot was evaluated on intensity, volume and area. […] After tryptic in-gel digestion, peptide masses were determined by LC-MS/MS using SYNAPT high definition MS (HDMS) (Waters Corp., Milford, MA, USA).

[2] = test system: PGK1; test: Western blot of PGK1 expression in treated A549 cells; assay type: cell-based, human; conditions: A549, 25 µM, 24 h, normalized to GAPDH
Description: To confirm the 2D-gel analysis results, HSPA1A and PGK1 were selected for the validation by Western blot. The same three experimental conditions were established, namely A549 cells treated with vehicle (0.025% DMSO), 25 μM andrographolide or 25 μM ZAD-1. Glyceraldehyde-3-phosphate dehydrogenase (GAPDH) was used as a loading control and the proteins were normalized to this protein. […] While the difference in HSPA1A expression between andrographolide treatment and ZAD-1 treatment is consistent with the spot intensity data (Table 3), the spot density for the control DMSO treatment is not consistent with the western blot result.
A total of 40 µg of proteins were separated by electrophoresis through a 12% sodium dodecyl sulfate (SDS) polyacrylamide gel and transferred to a nitrocellulose membrane by electroblotting. The membranes were blocked with 5% skim milk in TBS-T (20 mM Tris, 140 mM NaCl and 0.1% Tween-20) at room temperature for 1 h with shaking. […] The signal of specific protein bands was detected using the Luminata Forte Western HRP Substrate (Millipore Corp., Burlington, MA, USA) and recorded by film autoradiography. […]

[3] = MTT cytotoxicity assay in Vero cells; assay type: cell-based; conditions: African green monkey, Vero cells (monkey kidney), 24 h post-treatment
Description: Cytotoxicity of each compound towards cells for four selected cell lines in the range of 1 to 500 µM was evaluated using the MTT (3-(4,5-dimethylthiazol-2-yl)-2,5-diphenyltetrazolium bromide) assay at 24 h post-treatment, in parallel with control and vehicle-treated cells (0.1% dimethyl sulfoxide (DMSO)). The 50% cytotoxic concentration (CC50) values calculated from the dose-response curve (Supplementary Figures S2–S5) are shown in Table 1. Overall, a range of cytotoxicities were seen from the four compounds across the […]. The most cytotoxic combination was ZAD-1 and BHK-21 cells, while the least cytotoxic combination was andrographolide and BHK-21 cells (Table 1).
A549 cells were cultured in ninety-six-well tissue culture plates under standard conditions until the cells reached 90% confluence. The cell culture medium was removed and then cells were incubated with various concentrations of andrographolide (1–100 μM) diluted in complete medium with FBS prior to being cultured for 24 h under standard conditions before analysis using either the Vybrant MTT Cell proliferation assay kit (V13154, Invitrogen) or the alamarBlue (Thermo Fischer Scientific, Waltham, MA, USA) assay kit according to the manufacturers recommendations. Values were determined from 8 (MTT assay) or 3 (alamarBlue) independent replicates. Negative controls (only media and media with 0.1% DMSO) and positive controls (5% DMSO) were included. To determine cell number, cell cultures were trypsinized by the addition of 0.25% Trypsin/0.1% ethylelediaminetetraacetic acid (EDTA) for 3 min and then cell suspensions were diluted with 0.4% trypan blue solution. Cells were counted using a hemocytometer. Cell morphology was additionally observed under an inverted microscope after 24 h treatment with various concentrations of each compound.
Figu re S3. Cytotoxicity of ZAD -1 (A), ZA D-2 (B), ZA D-3 (C), and andro grapholide (D) to Ve r o (monkey kidney) cells. Ve r o cells were incubated with various concentrations of each compound for 24 hrs followed by MTT cell viability assay. The experiment was undertaken independently in 4 replicates. DMSO at the same concentrations was used as a control. 10% ethanol, PBS, and milli- Q water were used as a positive control of cell death. The bars show mean ± SD. […]

In the case of `C=C1CC[C@@H]2[C@]3(C)COC(C)(C)O[C@@H]3CC[C@@]2(C)[C@@H]1C/C=C1/C(=O)OC[C@@H]1Oc1c(Cl)cc(Cl)c2ccc(C)nc12` [ZAD-1], the “Intensity Level, spot 2 TKT” value [1] is reported as 523.514, the “PGK1 expression as compared to andrographolide treatment” value [2] is reported as “significantly increased expression” and the CC50 at 24 h [3] is reported as 510 ± 53 µM.

In the case of `C=C1CC[C@@H]2[C@](C)(CO)[C@H](O)CC[C@@]2(C)[C@@H]1C/C=C1/C(=O)OC[C@H]1O` [Andrographolide], the “Intensity Level, spot 2 TKT” value [1] is reported as 1452.51, the “PGK1 expression relative to the vehicle” value [2] is reported as “significantly upregulated” and the CC50 at 24 h [3] is reported as 469 ± 73 µM.
